# Assay results as given in US20260184700A1, “PDK1 REGULATORY COMPOUND AND COMPOSITION CONTAINING THE SAME” (PROVIBIO CO., LTD., priority 2024, published 2026).
# Columns and labels:
# [1] = tested on: NHDF (Normal Human Dermal Fibroblast) cells; experiment: Doxorubicin-induced aging NHDF cell model, SA-β-gal and Ki-67; type: cell-based; details: Doxorubicin (100 ng/ml) and IGF-1 (100 ng/ml), GO15F 0.01, 1 μM, 7 days
# Experimental: After pre-incubation, the medium was removed, and the cells were cultured for 7 days in medium containing Doxorubicin (100 ng/ml) and IGF-1 (100 ng/ml) with GO15F. During this process, the medium was replaced with fresh medium every 2 days. The cultured cells were washed with PBS, fixed with 1× fixation buffer for 15 minutes, washed again with PBS, and then 300 μL of 1× working SA-β-gal buffer was added to each well. The cells were incubated at 37° C. for 24 hours. After the reaction was terminated, the cells were washed with PBS, and the fluorescence intensity of β-gal-positive cells stained blue was observed and photographed using a light microscope. Additionally, to investigate the effect of the compound (GO15F) of the present invention on proliferation activity in aging-induced NHDF (Normal Human Dermal Fibroblast) cells, Ki-67 expression was measured via FACS analysis. First, NHDF cells were seeded at 1×10^4 cells per well in a 12-well plate and stabilized for 24 hours. Subsequently, the cells were pre-incubated with GO15F at a concentration of 0.01 μM for 24 hours. After pre-incubation, the medium was removed, and GO15F (0.01 μM) was added to the medium containing Doxorubicin (100 ng/ml) and IGF-1 (100 ng/ml), followed by incubation for 7 days with fresh medium replaced every 2 days. […]
# [2] = tested on: bleomycin-treated Balb/c mice; experiment: Bleomycin-induced pulmonary fibrosis animal model; type: in vivo, mouse; details: bleomycin mice lung, vs BLM-treated group
# From the text: To evaluate the therapeutic efficacy of the compound according to the present invention against pulmonary fibrosis, an animal model of pulmonary fibrosis induced by bleomycin intratracheal administration was established.
# For this purpose, 8-week-old male Balb/c mice were subjected to general anesthesia using an inhalation anesthetic (2-3% isoflurane in oxygen), followed by disinfection of the neck region, skin incision, and exposure of the trachea.
# Bleomycin (Sigma-Aldrich, USA) was directly administered into the trachea at a concentration of 5 mg/kg in a solution of 100 μL.
# Two days prior to Bleomycin administration, the compound of the present invention or the comparative drug was administered intraperitoneally at the specified concentration and dose, and the administration was continued once daily for a total of 14 days.
# The experimental groups included Normal, Bleomycin alone (BLM), and BLM plus the compound of the present invention (BLM+GO88, 0.2 mg/kg).
# Ten days later, the mice were euthanized humanely using carbon dioxide gas, the trachea was incised, and PBS was injected into the trachea to remove blood from the lungs.
# The lung tissue washed with PBS was excised, fixed in 4% paraformaldehyde solution for 24 hours, and then paraffin blocks and tissue sections were prepared. The prepared sections were subjected to pathological analysis using H & E, Masson's trichrome, and Sirius red staining.
# Additionally, immunohistochemical (IHC) staining was performed for α-SMA (α-smooth muscle actin), an indicator of lung fibroblast activation.
# [3] = tested on: MRL/lpr mice; experiment: Lupus animal model (MRL/lpr mice); type: in vivo, mouse
# From the text: The MRL/MpJ-Faslpr/J (Hereinafter Referred to as “MRL/lpr”) used in this experiment is one of the representative animal models for systemic lupus erythematosus (SLE), known to produce various autoantibodies, including antinuclear antibodies, due to the lpr (lymphoproliferation) gene.
# In this invention, the period up to 9 weeks of age was considered the pre-disease stage, and the period after 23 weeks of age was considered the post-disease stage, and efficacy verification experiments using this model were conducted.
# MRL/lpr mice were imported from The Jackson Laboratory and acclimatized for one week in an SPF (Specific Pathogen Free) facility maintained at a temperature of 21-24° C., humidity of 40-60%, and a 12-hour light-dark cycle (lights on at 7:00 AM, lights off at 7:00 PM). […]
# The serum separated at the time of necropsy of the lupus animal model was analyzed using the ‘IgG (Total) Mouse Uncoated ELISA Kit (Invitrogen, Cat. #88-50400)’ to measure the concentration of total IgG.
# Capture antibody (anti-mouse IgG) diluted 1/250 in coating buffer was added to each well of a 96-well plate (Nunc™ MaxiSorp™ ELISA Plates, Uncoated, BioLegend, Cat. #423501) at 100 μl per well, and the plate was incubated at 4° C. for 16 hours.
# To investigate the effect of GO15F administration on changes in the ratio of immune cells in the spleen of a lupus animal model, the spleens of mice administered each compound were excised, cells were extracted, and the cells were suspended in MACS buffer (autoMACS Washing Solution, Miltenyi Biotec., Cat. #130-092-987).
# For flow cytometry analysis, FACS tubes (5 mL round tubes, Falcon, Cat. #352052) were used. To prevent non-specific binding of antibodies, 1 μg/mL of anti-mouse CD16/CD32 (InVivoPlus anti-mouse CD16/CD32, BioXCell, Cat. #BP0307) for 30 minutes to prevent non-specific binding of the antibody, then centrifuge at 1,500 rpm for 5 minutes and resuspend in 100 μL of MACS buffer.
# For B cells, each FACS tube was stained with 1 μg/mL of FITC-conjugated anti-B220 antibody (eBioscience™, Cat. #11-0452-81) at 4° C. for 30 minutes, then washed with 2 mL of MACS buffer.
# For T cells, each FACS tube was stained with 1 μg/mL PerCP-Cy5.5-conjugated anti-CD3 (Biolegend, Cat. #100218) at 4° C. for 30 minutes.
# For macrophages, each FACS tube was stained with 1 μg/mL of PE-conjugated anti-CD11b antibody (Biolegend, Cat. #101207) and PerCP-Cy5.5-conjugated anti-F4/80 (Biolegend, Cat. #123128) and incubated at 4° C. for 30 minutes. The tubes were then washed with 2 mL of MACS buffer.
# To investigate the effects of compound GO15F according to the present invention on systemic immune responses in a lupus animal model, gene expression analysis of cytokines in kidney tissue was performed as described in (1).
# Each kidney tissue was used to isolate total RNA using TRIzol™ (Invitrozen, Cat. #15596018). RNA from each mouse was quantified at 1 μg using a micro-quantitative spectrophotometer (ThermoFisher Scientific, ND2000) and cDNA was synthesized.
# The synthesized cDNA from each mouse was quantified to a concentration of 50 ng using a micro-quantitative spectrophotometer, and qPCR was performed for the cytokines ‘IL-2, IL-6, IL-10, IL-17, TNF-α, IFN-γ’ using a SYBR green probe (CFX96, BIO-RAD).
# To investigate the effects of drug administration on renal tissue in MRL/lpr mice, the tissue was fixed in 10% neutral buffered formalin at room temperature, followed by stepwise ethanol penetration for dehydration. The tissue was then embedded in xylene and paraffin.
# The blocked tissues were sectioned into 4 μm thick slices using a microtome, followed by deparaffinization, hydration, and staining.
# Hematoxylin & Eosin staining, PAS staining, and Masson trichrome staining were performed for pathological evaluation of the tissues. […]
# [4] = tested on: phospho-PDK1 in SU-DHL-8 cells; experiment: PDK1 phosphorylation (pPDK1) by flow cytometry in SU-DHL-8 cells; type: cell-based, human; details: SU-DHL-8, 24 hours, pPDK1-PE flow cytometry, vs control group
# Experimental: SU-DHL-8 cells were cultured in RPMI-1640 medium (containing 10% FBS, 100 U/mL penicillin, and 100 μg/mL streptomycin), and the cell concentration was adjusted to 1×10^6 cells/mL and seeded into a 12-well plate. After stabilizing the cells, the compound of the present invention was added, and the cells were cultured for 24 hours.
# After drug treatment, the cells were harvested, and the Fc receptor blocking process was performed. The cells were then fixed and permeabilized using the Intracellular Staining Kit (Cat. No. BD554715) from BD Biosciences. Subsequently, the intracellular pPDK1 was stained using the pPDK1-PE fluorescently labeled antibody (BD Biosciences).
# Referring to the figure, the vertical axis represents the phosphorylation level of PDK1 (phospho-PDK1 expression level), and the horizontal axis denotes the concentration-dependent treatment conditions of each compound.
# [5] = MRL/lpr mice, serum at necropsy, ELISA, vs control group
smiles,measurement,setting,value
"Nc1ncccc1C(=O)NCCCCCCCCCCCCF [Compound 57, 2-Amino-N-(12-fluoro-dodecyl)-nicotinamide]",number of β-gal-positive cells,[1],decreased
same,collagen deposition (Masson's trichrome and Sirius red staining),[2],significantly reduced
same,expression of α-SMA (IHC),[2],significantly suppressed
same,hair growth on the facial region,"[3]; 41-week-old female MRL/lpr mice, GO15F (30 mg/kg), GO48 (1 mg/kg), GO88 (0.5 mg/kg) intraperitoneally once daily",hair growth was confirmed
same,renal pathological tissue (glomerular capillary loops),"[3]; MRL/lpr mice, H&E, PAS, Masson trichrome staining",glomerular capillary loops were well maintained
same,"B cells, T cells, and macrophages in the spleen","[3]; MRL/lpr mice, flow cytometry (B220, CD3, CD11b/F4/80)","reduced the increased B cells, T cells, and macrophages"
same,IgG deposition in kidney tissue,"[3]; MRL/lpr mice, immunofluorescence staining",significantly lower
same,concentration of anti-dsDNA IgG in the blood,[3]; [5],significantly lower
same,total IgG concentration in the blood,[3]; [5],significantly lower
same,protein concentration in urine,"[3]; MRL/lpr mice, weekly urine, Bradford, vs control group",significantly lower than that in the control group
same,PDK1 phosphorylation (phospho-PDK1 expression level),[4],inhibitory effect on PDK1 phosphorylation
